C#C[C@]1(O)CC[C@H]2[C@@H]3CCC4=CC(=O)CC[C@@H]4[C@H]3C(=C)C[C@@]21CC
solubility (mole fraction)
Conditions	in DMF	in THF	in acetone	in ethanol	in ethyl acetate	in isopropanol	in methyl acetate	in n-butanol	in n-propanol	in water
273.15 K	0.0757	0.0739	0.012	0.0017	0.0189	0.00463	0.0104	0.00421	0.00452	1.38e-05
278.15 K	0.0792	0.0891	0.0133	0.00209	0.022	0.00545	0.0119	0.00514	0.00514	1.64e-05
283.15 K	0.0825	0.106	0.0148	0.00249	0.0249	0.00633	0.0135	0.00615	0.00585	1.92e-05
288.15 K	0.0865	0.125	0.0165	0.00293	0.0291	0.00731	0.0153	0.00742	0.00657	2.24e-05
293.15 K	0.0888	0.148	0.0184	0.00343	0.0338	0.00851	0.017	0.00904	0.00753	2.6e-05
298.15 K	0.0965	0.173	0.0198	0.00412	0.0383	0.00994	0.019	0.0109	0.00865	3.1e-05
303.15 K	0.0974	0.2	0.0224	0.00494	0.043	0.0115	0.0211	0.0126	0.00974	3.65e-05
308.15 K	0.101	0.223	0.0248	0.00593	0.0476	0.0132	0.0229	0.0148	0.0112	4.25e-05
313.15 K	0.105	0.263	0.0273	0.00695	0.0539	0.0154	0.025	0.0171	0.0124	4.91e-05
318.15 K	0.109	0.299	0.03	0.00817	0.059	0.0178	0.0271	0.0198	0.0142	5.62e-05
323.15 K	0.115	0.332	0.0335	0.00967	0.0648	0.0209	0.0294	0.0227	0.0159	6.37e-05

From BigSolDB 2.1
